Assay [1] concerns S6RP serine-240/244 phosphorylation in HEK293T/17 cells. The assay is described as follows: In vitro phospho-S6 cellular assay (pS6RP S240/244). Format: cell-based. The note with it: Homo sapiens, Table 6, 2 hours, S6RP Ser240/244, read-out: pS6 (phospho-S6 cell assay data, activity level). The gist of the method:
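HEK293T/17 cells in DMEM with 2% FCS treated with 8 compound concentrations (0.1% DMSO) for 2 h at 37 °C, then lysed. Phospho-S6RP Ser240/244 or phospho-Akt Ser473 quantified by MesoScale sandwich immunoassay with Sulfo-Tag detection; IC50 from variable-slope sigmoidal fit.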

In a further assay the target is T1, PI3Kβ (Homo sapiens, UniProt P42338).
T1 construct: endogenous in cells; host or cells: Jurkat cells (ATCC TIB-152) lysate, the only lysate described
The assay is described as follows: kinobeads assay, PI3K beta (dot blot detection). Format: binding. The note with it: Table 4, read-out: Inhibition values (IC50) PI3Kb.

The target in the next assay is T2, PI3Kγ (Homo sapiens, UniProt P48736).
T2 construct: endogenous in cells; host or cells: Jurkat cells (ATCC TIB-152) lysate, the only lysate described
The assay is described as follows: kinobeads assay, PI3K gamma (dot blot detection). Type of assay: binding. Particulars: Table 4, read-out: Inhibition values (IC50) PI3Kg.

The target of assay [2] is T3, kinases (kinome) (Homo sapiens, UniProt Q14164).
T3 construct: determined in kinobeads assays with mass spectrometry detection of kinases as described previously; endogenous in cells; host or cells: cell lysate
T3 sequence (Q14164 1-716): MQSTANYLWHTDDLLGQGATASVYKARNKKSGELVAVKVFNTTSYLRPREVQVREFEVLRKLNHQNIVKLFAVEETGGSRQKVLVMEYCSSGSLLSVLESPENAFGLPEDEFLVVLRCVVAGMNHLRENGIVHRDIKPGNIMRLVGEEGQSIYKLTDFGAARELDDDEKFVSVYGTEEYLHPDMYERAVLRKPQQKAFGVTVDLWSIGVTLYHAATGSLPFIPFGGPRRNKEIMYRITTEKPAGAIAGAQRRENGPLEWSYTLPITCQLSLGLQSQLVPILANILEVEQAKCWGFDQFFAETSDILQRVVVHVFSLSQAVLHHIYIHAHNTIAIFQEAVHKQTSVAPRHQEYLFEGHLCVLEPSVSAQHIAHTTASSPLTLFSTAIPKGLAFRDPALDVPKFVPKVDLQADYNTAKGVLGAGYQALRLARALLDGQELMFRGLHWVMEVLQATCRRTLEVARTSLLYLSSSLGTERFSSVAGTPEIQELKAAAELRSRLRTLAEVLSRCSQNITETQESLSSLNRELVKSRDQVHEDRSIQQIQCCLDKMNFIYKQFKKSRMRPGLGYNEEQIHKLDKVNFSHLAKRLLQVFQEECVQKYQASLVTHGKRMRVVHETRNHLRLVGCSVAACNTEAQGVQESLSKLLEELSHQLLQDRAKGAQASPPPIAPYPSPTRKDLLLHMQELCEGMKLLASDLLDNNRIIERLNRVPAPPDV
The assay is described as follows: kinobeads assay with mass spectrometry detection of kinases (kinase selectivity profile). Type of assay: binding. Particulars: IKKe (Other), IPI00029045. The source says:
(§1) The protein kinase complement of the human genome (the kinome) was described previously (Manning et al., 2002. Science 298(5600):1912-1934). Sequence accession numbers are defined by the International Protein Index (IPI) (Kersey et al., 2004. Proteomics 4(7):1985-1988).

The target of assay [3] is T4, kinases (kinome) (Homo sapiens, UniProt P53671).
T4 construct: determined in kinobeads assays with mass spectrometry detection of kinases as described previously; endogenous in cells; host or cells: cell lysate
The assay is described as above. Format: binding. Particulars: LIMK2 (TKL), IPI00025698.
Excerpt: as §1

In assay [4] the target is T5, kinases (kinome) (Homo sapiens, UniProt P30291).
T5 construct: determined in kinobeads assays with mass spectrometry detection of kinases as described previously; endogenous in cells; host or cells: cell lysate
The assay is described as above. Format: binding. Particulars: Wee1 (Other), IPI00025830.
Excerpt: as §1

The target in assay [5] is T6, kinases (kinome) (Homo sapiens, UniProt Q08345).
T6 construct: determined in kinobeads assays with mass spectrometry detection of kinases as described previously; endogenous in cells; host or cells: cell lysate
The assay is described as above. Type of assay: binding. Particulars: DDR1 (TK), IPI00657861.
Excerpt: as §1

Assay [6] concerns the target T7, kinases (kinome) (Homo sapiens, UniProt P07948).
T7 construct: determined in kinobeads assays with mass spectrometry detection of kinases as described previously; endogenous in cells; host or cells: cell lysate
Described as above. Type of assay: binding. The note with it: LYN (TK), IPI00298625.
Excerpt: as §1

For assay [7], the target named is T8, kinases (kinome) (Homo sapiens, UniProt O96013).
T8 construct: determined in kinobeads assays with mass spectrometry detection of kinases as described previously; endogenous in cells; host or cells: cell lysate
Described as above. Format: binding. Particulars: PAK4 (STE), IPI00014068.
Excerpt: as §1

The target in assay [8] is T9, kinases (kinome) (Homo sapiens, UniProt Q00534).
T9 construct: determined in kinobeads assays with mass spectrometry detection of kinases as described previously; endogenous in cells; host or cells: cell lysate
Described as above. Type of assay: binding. Particulars: CDK6 (CMGC), IPI00023529.
Excerpt: as §1

T4 sequence (P53671 whole entry): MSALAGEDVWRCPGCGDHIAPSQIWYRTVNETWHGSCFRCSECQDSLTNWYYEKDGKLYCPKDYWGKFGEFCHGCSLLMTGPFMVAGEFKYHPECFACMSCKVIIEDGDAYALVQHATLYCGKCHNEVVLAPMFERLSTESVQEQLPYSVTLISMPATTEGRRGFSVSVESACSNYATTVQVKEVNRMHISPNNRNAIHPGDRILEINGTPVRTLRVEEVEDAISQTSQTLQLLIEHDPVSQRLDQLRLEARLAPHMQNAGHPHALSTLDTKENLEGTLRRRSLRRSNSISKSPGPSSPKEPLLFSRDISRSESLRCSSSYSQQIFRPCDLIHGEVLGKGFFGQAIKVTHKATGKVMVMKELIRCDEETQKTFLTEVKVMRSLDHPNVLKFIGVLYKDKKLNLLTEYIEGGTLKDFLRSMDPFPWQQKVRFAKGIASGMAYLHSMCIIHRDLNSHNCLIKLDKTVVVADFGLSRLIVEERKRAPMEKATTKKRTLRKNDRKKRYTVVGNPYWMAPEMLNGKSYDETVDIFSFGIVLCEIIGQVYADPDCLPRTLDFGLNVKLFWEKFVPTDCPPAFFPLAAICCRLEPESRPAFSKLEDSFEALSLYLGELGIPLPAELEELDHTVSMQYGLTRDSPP
T6 sequence (Q08345 19-913): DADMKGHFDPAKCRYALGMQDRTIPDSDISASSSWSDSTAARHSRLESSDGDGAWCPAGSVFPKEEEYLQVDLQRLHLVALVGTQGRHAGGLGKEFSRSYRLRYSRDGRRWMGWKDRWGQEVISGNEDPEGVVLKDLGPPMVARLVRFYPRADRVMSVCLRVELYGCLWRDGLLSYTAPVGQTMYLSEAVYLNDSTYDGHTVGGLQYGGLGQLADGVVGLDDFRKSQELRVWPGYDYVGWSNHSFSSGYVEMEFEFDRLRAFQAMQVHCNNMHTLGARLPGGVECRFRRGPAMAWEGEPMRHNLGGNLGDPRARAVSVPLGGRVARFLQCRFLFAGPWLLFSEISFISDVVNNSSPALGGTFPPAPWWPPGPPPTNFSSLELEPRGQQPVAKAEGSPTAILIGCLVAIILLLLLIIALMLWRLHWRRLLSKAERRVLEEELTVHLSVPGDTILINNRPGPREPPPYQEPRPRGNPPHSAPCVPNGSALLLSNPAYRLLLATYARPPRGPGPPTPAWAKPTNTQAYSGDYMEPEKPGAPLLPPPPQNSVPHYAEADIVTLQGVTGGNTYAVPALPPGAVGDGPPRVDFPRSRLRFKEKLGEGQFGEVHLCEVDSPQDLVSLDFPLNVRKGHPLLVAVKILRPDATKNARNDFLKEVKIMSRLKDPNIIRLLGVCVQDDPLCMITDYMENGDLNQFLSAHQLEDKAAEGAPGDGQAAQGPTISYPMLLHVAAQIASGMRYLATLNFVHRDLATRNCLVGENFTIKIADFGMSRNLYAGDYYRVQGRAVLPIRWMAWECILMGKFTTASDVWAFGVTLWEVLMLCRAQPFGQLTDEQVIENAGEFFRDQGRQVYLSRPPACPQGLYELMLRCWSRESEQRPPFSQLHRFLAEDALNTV
T7 sequence (P07948 whole entry): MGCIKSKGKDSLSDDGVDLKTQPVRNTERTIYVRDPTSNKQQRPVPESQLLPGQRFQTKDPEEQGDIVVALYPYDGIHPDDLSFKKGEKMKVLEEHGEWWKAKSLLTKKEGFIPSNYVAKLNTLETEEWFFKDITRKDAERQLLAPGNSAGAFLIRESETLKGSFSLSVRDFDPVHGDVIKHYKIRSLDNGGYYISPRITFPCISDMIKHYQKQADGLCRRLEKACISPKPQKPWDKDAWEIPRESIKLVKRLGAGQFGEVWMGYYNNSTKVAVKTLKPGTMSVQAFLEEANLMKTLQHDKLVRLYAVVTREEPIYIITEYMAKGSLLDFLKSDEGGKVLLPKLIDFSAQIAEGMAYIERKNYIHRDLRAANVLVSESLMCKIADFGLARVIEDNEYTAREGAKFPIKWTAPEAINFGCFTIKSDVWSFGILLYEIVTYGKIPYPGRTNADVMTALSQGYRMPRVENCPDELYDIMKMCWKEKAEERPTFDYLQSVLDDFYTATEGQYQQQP
T9 sequence (Q00534 whole entry): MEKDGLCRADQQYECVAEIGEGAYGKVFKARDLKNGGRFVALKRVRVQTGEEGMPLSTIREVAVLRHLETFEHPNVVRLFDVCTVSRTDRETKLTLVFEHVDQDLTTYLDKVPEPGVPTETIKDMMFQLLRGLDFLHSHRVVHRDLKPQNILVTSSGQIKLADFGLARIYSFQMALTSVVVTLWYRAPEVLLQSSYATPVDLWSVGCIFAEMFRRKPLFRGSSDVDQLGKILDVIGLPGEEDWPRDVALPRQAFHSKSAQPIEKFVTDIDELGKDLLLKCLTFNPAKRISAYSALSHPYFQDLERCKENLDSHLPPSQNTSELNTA
T2 sequence (P48736 whole entry): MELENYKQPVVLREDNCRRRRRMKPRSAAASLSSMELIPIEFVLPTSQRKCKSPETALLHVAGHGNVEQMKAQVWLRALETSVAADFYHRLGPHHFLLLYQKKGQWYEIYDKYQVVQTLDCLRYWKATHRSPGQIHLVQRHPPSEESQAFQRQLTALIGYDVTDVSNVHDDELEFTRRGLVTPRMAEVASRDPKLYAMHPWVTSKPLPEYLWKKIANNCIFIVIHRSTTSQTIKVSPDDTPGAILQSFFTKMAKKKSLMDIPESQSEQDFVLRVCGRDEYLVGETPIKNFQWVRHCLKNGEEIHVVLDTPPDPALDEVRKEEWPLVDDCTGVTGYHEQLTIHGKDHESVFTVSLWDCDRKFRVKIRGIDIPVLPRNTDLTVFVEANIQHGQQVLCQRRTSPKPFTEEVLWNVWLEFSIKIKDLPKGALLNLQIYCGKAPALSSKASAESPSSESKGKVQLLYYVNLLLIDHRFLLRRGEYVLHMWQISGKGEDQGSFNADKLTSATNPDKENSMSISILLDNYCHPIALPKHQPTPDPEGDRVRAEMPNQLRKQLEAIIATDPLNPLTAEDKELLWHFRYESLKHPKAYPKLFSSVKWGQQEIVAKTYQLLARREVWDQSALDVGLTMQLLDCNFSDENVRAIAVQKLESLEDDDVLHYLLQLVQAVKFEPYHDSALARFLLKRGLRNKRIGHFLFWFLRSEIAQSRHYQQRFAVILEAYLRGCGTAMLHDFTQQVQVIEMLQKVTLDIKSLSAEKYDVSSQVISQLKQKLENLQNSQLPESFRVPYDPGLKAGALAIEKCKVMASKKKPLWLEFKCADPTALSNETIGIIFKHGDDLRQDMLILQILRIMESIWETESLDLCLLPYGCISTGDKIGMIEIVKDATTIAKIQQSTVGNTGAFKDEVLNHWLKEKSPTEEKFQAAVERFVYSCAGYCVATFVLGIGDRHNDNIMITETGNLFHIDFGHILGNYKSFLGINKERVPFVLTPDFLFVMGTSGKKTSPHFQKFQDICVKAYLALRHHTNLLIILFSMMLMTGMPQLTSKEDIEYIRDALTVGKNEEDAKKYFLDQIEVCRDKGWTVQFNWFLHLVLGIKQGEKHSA
T8 sequence (O96013 whole entry): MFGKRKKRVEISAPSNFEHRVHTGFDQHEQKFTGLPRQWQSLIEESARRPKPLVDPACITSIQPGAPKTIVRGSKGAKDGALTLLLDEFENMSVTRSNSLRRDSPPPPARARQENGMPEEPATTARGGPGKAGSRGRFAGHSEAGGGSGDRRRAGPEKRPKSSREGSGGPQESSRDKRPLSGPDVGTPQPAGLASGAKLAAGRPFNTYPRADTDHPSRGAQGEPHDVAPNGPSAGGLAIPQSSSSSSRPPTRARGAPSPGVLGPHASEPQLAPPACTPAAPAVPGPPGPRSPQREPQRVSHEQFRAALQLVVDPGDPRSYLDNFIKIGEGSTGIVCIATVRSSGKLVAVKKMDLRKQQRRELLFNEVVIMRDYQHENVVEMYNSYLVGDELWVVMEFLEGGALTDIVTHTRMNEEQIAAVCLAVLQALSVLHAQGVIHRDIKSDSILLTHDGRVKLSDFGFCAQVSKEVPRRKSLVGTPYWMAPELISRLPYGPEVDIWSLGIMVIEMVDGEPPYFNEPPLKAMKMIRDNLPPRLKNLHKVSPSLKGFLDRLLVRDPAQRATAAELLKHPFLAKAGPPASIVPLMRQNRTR
T5 sequence (P30291 whole entry): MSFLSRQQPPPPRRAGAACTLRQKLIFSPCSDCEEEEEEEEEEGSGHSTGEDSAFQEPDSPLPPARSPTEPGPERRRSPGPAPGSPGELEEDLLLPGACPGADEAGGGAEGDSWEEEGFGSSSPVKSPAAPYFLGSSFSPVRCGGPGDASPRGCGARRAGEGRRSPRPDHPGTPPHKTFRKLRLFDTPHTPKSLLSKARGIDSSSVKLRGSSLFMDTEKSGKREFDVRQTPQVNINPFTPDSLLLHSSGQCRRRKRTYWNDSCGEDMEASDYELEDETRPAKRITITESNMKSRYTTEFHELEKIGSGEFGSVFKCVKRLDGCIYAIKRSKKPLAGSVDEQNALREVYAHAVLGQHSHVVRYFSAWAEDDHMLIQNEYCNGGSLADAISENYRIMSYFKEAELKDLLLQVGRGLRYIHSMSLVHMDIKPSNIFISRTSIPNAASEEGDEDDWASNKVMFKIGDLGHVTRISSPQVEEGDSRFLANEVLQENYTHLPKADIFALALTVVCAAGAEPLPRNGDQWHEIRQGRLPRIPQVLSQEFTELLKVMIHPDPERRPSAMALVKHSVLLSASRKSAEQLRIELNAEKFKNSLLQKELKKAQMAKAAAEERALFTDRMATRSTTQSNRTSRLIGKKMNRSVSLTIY

As for `CCNC(=O)Nc1ccc(-c2cc(-c3cc(F)ccc3S(C)(=O)=O)nc(N3CCOC[C@@H]3C)n2)cc1` [Example 2, (S)-1-ethyl-3-(4-(6-(5-fluoro-2-(methylsulfonyl)phenyl)-2-(3-methylmorpholino)pyrimidin-4-yl)phenyl)urea], the IC50 was less than 0.1 µM in assay [1], no less than 10 µM on PI3Kβ and no less than 10 µM on PI3Kγ.

In the case of `C[C@H]1COCCN1c1nc(-c2ccc(NC(=O)NC3CC3)cc2)cc(-c2ccccc2S(C)(=O)=O)n1` [Example 4, (S)-1-cyclopropyl-3-(4-(2-(3-methylmorpholino)-6-(2-(methylsulfonyl)phenyl)pyrimidin-4-yl)phenyl)urea], the IC50 against kinases (kinome) [2], at kinases (kinome) [3], on kinases (kinome) [4], against kinases (kinome) [5], against kinases (kinome) [6] and on kinases (kinome) [7] was greater than 10 µM throughout. Besides, the IC50 at kinases (kinome) [8] is greater than 10 µM; in assay [1], less than 0.1 µM; on PI3Kβ, no less than 10 µM; on PI3Kγ, no less than 10 µM.

Turning to `C[C@H]1COCCN1c1cc(-c2ccccc2S(C)(=O)=O)nc(-c2ccc(NC(=O)NC3CC3)cc2)n1` [Example 6, (S)-1-cyclopropyl-3-(4-(4-(3-methylmorpholino)-6-(2-(methylsulfonyl)phenyl)pyrimidin-2-yl)phenyl)urea], the IC50 on kinases (kinome) [2], against kinases (kinome) [3], at kinases (kinome) [4], on kinases (kinome) [5], at kinases (kinome) [6] and on kinases (kinome) [7] was greater than 10 µM in each case. In addition, the IC50 is greater than 10 µM against kinases (kinome) [8], less than 0.1 µM in assay [1], no less than 10 µM on PI3Kβ and no less than 10 µM on PI3Kγ.

Take `CCNC(=O)Nc1ccc(-c2cc(-c3ccccc3C#N)nc(N3CCOC[C@@H]3C)n2)cc1` [Example 8, (S)-1-(4-(6-(2-cyanophenyl)-2-(3-methylmorpholino)pyrimidin-4-yl)phenyl)-3-ethylurea]: the IC50 against kinases (kinome) [2], at kinases (kinome) [3], at kinases (kinome) [4], against kinases (kinome) [6] and against kinases (kinome) [7] was greater than 10 µM each time.

Take `C[C@H]1COCCN1c1cc(-c2ccc(F)nc2)nc(-c2ccc(NC(=O)NC3CC3)cc2)n1` [Example 21, (S)-1-cyclopropyl-3-(4-(4-(6-fluoropyridin-3-yl)-6-(3-methylmorpholino)pyrimidin-2-yl)phenyl)urea]: the IC50 in assay [1] is less than 0.1 µM; on PI3Kβ, no less than 10 µM; at PI3Kγ it was no less than 10 µM.

Take `C[C@H]1COCCN1c1cc(-c2cncc(F)c2)nc(-c2ccc(NC(=O)NC3CC3)cc2)n1` [Example 23, (S)-1-cyclopropyl-3-(4-(4-(5-fluoropyridin-3-yl)-6-(3-methylmorpholino)pyrimidin-2-yl)phenyl)urea]: the results for the IC50 (in assay [1]; on PI3Kβ; on PI3Kγ) were 0.1 to 1 µM, no less than 10 µM and no less than 10 µM, respectively.

On to `C[C@H]1COCCN1c1nc(-c2ccc(NC(=O)NC3CC3)cc2)cc(-c2cc(F)ccc2S(C)(=O)=O)n1` [Example 40, (S)-1-cyclopropyl-3-(4-(6-(5-fluoro-2-(methylsulfonyl)phenyl)-2-(3-methylmorpholino)pyrimidin-4-yl)phenyl)urea], for which the IC50 against kinases (kinome) [2], against kinases (kinome) [3], on kinases (kinome) [4], at kinases (kinome) [5], against kinases (kinome) [6] and at kinases (kinome) [7] was greater than 10 µM in each case. Also, the IC50 against kinases (kinome) [8] is greater than 10 µM; in assay [1] it was less than 0.1 µM; on PI3Kβ, no less than 10 µM; at PI3Kγ it was no less than 10 µM.

On to `C[C@H]1COCCN1c1nc(-c2ccc(NC(=O)NCCO)cc2)cc(-c2cc(F)ccc2S(C)(=O)=O)n1` [Example 41, (S)-1-(4-(6-(5-fluoro-2-(methylsulfonyl)phenyl)-2-(3-methylmorpholino)pyrimidin-4-yl)phenyl)-3-(2-hydroxyethyl)urea], for which the IC50 is less than 0.1 µM in [1], no less than 10 µM on PI3Kβ and no less than 10 µM on PI3Kγ.

With `C[C@H]1COCCN1c1cc(-c2ccccn2)nc(-c2ccc(NC(=O)NC3CC3)cc2)n1` [Example 42, (S)-1-cyclopropyl-3-(4-(4-(3-methylmorpholino)-6-(pyridin-2-yl)pyrimidin-2-yl)phenyl)urea], the IC50 in [1] was 0.1 to 1 µM; on PI3Kβ, no less than 10 µM; on PI3Kγ, no less than 10 µM.

Turning to `C[C@H]1COCCN1c1cc(-c2ccccn2)nc(-c2ccc(NC(=O)NCCO)cc2)n1` [Example 43, (S)-1-(2-hydroxyethyl)-3-(4-(4-(3-methylmorpholino)-6-(pyridin-2-yl)pyrimidin-2-yl)phenyl)urea], the IC50 against kinases (kinome) [2], at kinases (kinome) [3], against kinases (kinome) [4], at kinases (kinome) [5], at kinases (kinome) [6] and at kinases (kinome) [7] was greater than 10 µM each time. In addition, the IC50 against kinases (kinome) [8] was greater than 10 µM; in assay [1] it was less than 0.1 µM; on PI3Kβ, no less than 10 µM; at PI3Kγ it was no less than 10 µM.

Take `C[C@H]1COCCN1c1nc(-c2ccc(NC(=O)NCCF)cc2)cc(-c2cc(F)ccc2S(C)(=O)=O)n1` [Example 44, (S)-1-(4-(6-(5-fluoro-2-(methylsulfonyl)phenyl)-2-(3-methylmorpholino)pyrimidin-4-yl)phenyl)-3-(2-fluoroethyl)urea]: the IC50 is less than 0.1 µM in [1], no less than 10 µM on PI3Kβ and no less than 10 µM on PI3Kγ.

Take `C[C@H]1COCCN1c1nc(-c2ccc(NC(=O)NCC(F)F)cc2)cc(-c2cc(F)ccc2S(C)(=O)=O)n1` [Example 47, (S)-1-(2,2-difluoroethyl)-3-(4-(6-(5-fluoro-2-(methylsulfonyl)phenyl)-2-(3-methylmorpholino)pyrimidin-4-yl)phenyl)urea]: the values for the IC50 (in [1]; at PI3Kβ; on PI3Kγ) were less than 0.1 µM, no less than 10 µM and no less than 10 µM, respectively.

Take `C[C@H]1COCCN1c1ccnc(-c2ccc(NC(=O)Nc3ccncc3)cc2)n1` [Example 60, (S)-1-(4-(4-(3-methylmorpholino)pyrimidin-2-yl)phenyl)-3-(pyridin-4-yl)urea]: the IC50 was less than 0.1 µM in assay [1], no less than 10 µM on PI3Kβ and no less than 10 µM on PI3Kγ.

For the compound `O=C(Nc1ccncc1)Nc1ccc(-c2nccc(N3CC4CCC(C3)O4)n2)cc1` [Example 61, 1-(4-(4-(8-oxa-3-azabicyclo[3.2.1]octan-3-yl)pyrimidin-2-yl)phenyl)-3-(pyridin-4-yl)urea], the IC50 was less than 0.1 µM in assay [1], no less than 10 µM at PI3Kβ and no less than 10 µM on PI3Kγ.

For `CS(=O)(=O)c1ccc(F)cc1-c1cc(-c2ccc(NC(=O)NCCO)cc2)nc(N2CCOCC2)n1` [Example 62, 1-(4-(6-(5-fluoro-2-(methylsulfonyl)phenyl)-2-morpholinopyrimidin-4-yl)phenyl)-3-(2-hydroxyethyl)urea], the IC50 is 0.1 to 1 µM in assay [1], no less than 10 µM on PI3Kβ and no less than 10 µM at PI3Kγ.

Regarding `C[C@H]1COCCN1c1nc(-c2ccc(NC(=O)NCCCO)cc2)cc(-c2cc(F)ccc2S(C)(=O)=O)n1` [Example 64, (S)-1-(4-(6-(5-fluoro-2-(methylsulfonyl)phenyl)-2-(3-methylmorpholino)pyrimidin-4-yl)phenyl)-3-(3-hydroxypropyl)urea], the IC50 was less than 0.1 µM in assay [1], no less than 10 µM at PI3Kβ and no less than 10 µM at PI3Kγ.

Values taken from US9249129B2, “Morpholino substituted urea derivatives as mTOR inhibitors” (CELLZOME LIMITED, priority 2010, dated 2016).
